Measured values taken from ChEMBL document CHEMBL1201862, “PubChem BioAssay data set” (2004).
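Cells were grown in 96-well plates and exposed to each compound for 48 hours at five concentrations; endpoints were interpolated linearly between bracketing concentrations, or set to the highest concentration if not reached. GI50 marks 50% less growth.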 Active and inactive are the calls of the source. Cut-off read from the data, not from the text of the source: active = GI50 up to about 1.1 µM and inactive = higher.

Legend:
Experiment in all cases: growth of human tumour cells (NCI), 48 h
HCC 2998 = system: HCC 2998
HL-60 = system: HL-60
A498 = system: A498
SK-OV-3 = system: SK-OV-3
OVCAR-4 = system: OVCAR-4
NCI-H460 = system: NCI-H460
DMS-114 = system: DMS-114
RXF 393 = system: RXF 393
ACHN = system: ACHN
HOP-92 = system: HOP-92
SK-MEL-28 = system: SK-MEL-28
HT-29 = system: HT-29
A549 = system: A549
UACC-257 = system: UACC-257
DLD-1 = system: DLD-1
SF-268 = system: SF-268
HOP-62 = system: HOP-62
SNB-19 = system: SNB-19

Measured: GI50

CC(=O)OCC1OC(n2c(=O)n(-c3ccccc3)c(=O)c3ccccc32)C(OC(C)=O)C(OC(C)=O)C1OC(C)=O (centres undefined)
inactive: HCC 2998 > 100 µM | HL-60 > 100 µM | A498 > 100 µM | SK-OV-3 > 100 µM | OVCAR-4 > 100 µM | NCI-H460 > 100 µM | DMS-114 > 100 µM | RXF 393 > 100 µM | ACHN > 100 µM | HOP-92 > 100 µM | SK-MEL-28 > 100 µM | HT-29 > 100 µM | A549 > 100 µM | UACC-257 > 100 µM | DLD-1 > 100 µM | SF-268 > 100 µM | HOP-62 > 100 µM | SNB-19 > 100 µM

O=c1c2ccccc2[nH]c2ccc3c(Cl)n[nH]c3c12
inactive: HCC 2998 35.5 µM | HL-60 40.1 µM | A498 30.9 µM | SK-OV-3 > 100 µM | OVCAR-4 59.4 µM | NCI-H460 31.8 µM | DMS-114 57.7 µM | RXF 393 42.2 µM | ACHN 27.8 µM | HOP-92 38.5 µM | SK-MEL-28 87.5 µM | HT-29 37.6 µM | A549 15.9 µM | UACC-257 37.2 µM | DLD-1 19.5 µM | SF-268 50.5 µM | HOP-62 29.1 µM | SNB-19 32.7 µM

CCCCCCCCCCCCCCCCCCOCC(C[N+]1(C)CCC(O)CC1)OCC (centres undefined)
inactive: HCC 2998 12.7 µM | HL-60 1.79 µM | A498 11.7 µM | SK-OV-3 2.92 µM | OVCAR-4 4.1 µM | DMS-114 3.19 µM | HOP-92 1.78 µM | SK-MEL-28 12.7 µM | HT-29 3.37 µM | A549 5.87 µM | UACC-257 10.9 µM | DLD-1 11.8 µM | SF-268 3.39 µM | HOP-62 4.23 µM | SNB-19 6.73 µM

O=C1[C@H]2ON(c3ccccc3)C(c3ccccc3F)[C@H]2C(=O)N1c1ccc(Cc2ccc(N3C(=O)[C@@H]4ON(c5ccccc5)C(c5ccccc5F)[C@@H]4C3=O)cc2)cc1 (some centres undefined)
inactive: HCC 2998 > 100 µM | HL-60 > 100 µM | A498 > 100 µM | SK-OV-3 > 100 µM | OVCAR-4 > 100 µM | NCI-H460 > 100 µM | DMS-114 > 100 µM | RXF 393 55.2 µM | ACHN > 100 µM | HOP-92 21.5 µM | SK-MEL-28 > 100 µM | HT-29 > 100 µM | A549 > 100 µM | UACC-257 45.1 µM | DLD-1 > 100 µM | SF-268 > 100 µM | HOP-62 > 100 µM

CC[As](CC)SCC1OC(OC(C)=O)C(OC(C)=O)C(OC(C)=O)C1OC(C)=O (centres undefined)
inactive: HCC 2998 17.5 µM | HL-60 3.16 µM | A498 20.6 µM | SK-OV-3 15.8 µM | OVCAR-4 21.9 µM | NCI-H460 16.8 µM | DMS-114 4.81 µM | RXF 393 3.26 µM | ACHN 17.4 µM | HOP-92 3.15 µM | SK-MEL-28 4.01 µM | HT-29 21.5 µM | A549 21 µM | UACC-257 14.2 µM | DLD-1 16.1 µM | SF-268 11.6 µM | HOP-62 20.8 µM | SNB-19 17.9 µM

COC1=CC(=O)OC(/C=C(C)/C=C/C2=C(C)CCCC2(C)C)C1 (centres undefined)
inactive: HCC 2998 > 100 µM | HL-60 > 100 µM | A498 > 100 µM | SK-OV-3 > 100 µM | OVCAR-4 > 100 µM | NCI-H460 > 100 µM | DMS-114 > 100 µM | RXF 393 > 100 µM | ACHN > 100 µM | HOP-92 > 100 µM | SK-MEL-28 > 100 µM | HT-29 > 100 µM | A549 > 100 µM | UACC-257 > 100 µM | DLD-1 > 100 µM | SF-268 > 100 µM | HOP-62 > 100 µM | SNB-19 > 100 µM
